Experimental findings from US7906334B2, “Method for reproducing conifers by somatic embryogenesis using lactose as a carbon source” (Cellfor Inc., priority 2003, dated 2011) are described below.

The subject of data set [1] is loblolly pine lines LP1 and LP3. In words: Effect of galactose and galactose-containing sugars during proliferation and prematuration on SE yield. In kind it is cell-based, Pinus taeda (loblolly pine). Conditions: for # SE/g FW / Amount of tissue at the end of the preculture II stage: 1% sucrose, 1.5% maltose, 1.5% lactose or 0.75% galactose. Further details: Amount of tissue at the end of the preculture II stage: unit not given here. How it is done: The finding that loblolly pine cultures were capable of utilising galactose is unique. In order to further investigate these phenomenon two lines, LP1 and LP3, were cultured on semi-solid TX medium containing 1.0% lactose and 0.5% sucrose. Cultures were maintained by subculturing the embryogenic tissue every 10 to 14 days to fresh media. All cultures were incubated at 23° C. in the dark. Suspension cultures were initiated as described in Example 3, however, TX medium was supplemented with either 1% sucrose, 1.5% maltose, 1.5% lactose, or 0.75% galactose. These cultures were maintained in liquid media for 4 weeks by weekly transfers to fresh maintenance or prematuration media. After the 4˜week period, 1 ml of the liquid medium containing 0.1 g of tissue consisting of early stage somatic embryos was plated on each […] plates containing ½ LV maturation medium. This medium contained 120 μM ABA and 6.0% sucrose and 1% Phytagel. Eight to ten weeks later, mature somatic embryos were counted and treatments were evaluated based on the number of somatic embryos per gram fresh weight (Table 5).

Data set [2] has as its system loblolly pine embryogenic tissue. In words: Effect of carbon source on solid maintenance of loblolly pine. To be noted: semi-solid TX medium; 1% sucrose, or 1.5% lactose and 0.025% glucose. Format: cell-based, Pinus taeda (loblolly pine). The method, then: Tissue induced on sucrose from Example 1 was further maintained on the semi-solid TX medium containing 1% sucrose, and tissue induced on lactose was maintained on semi-solid TX medium containing 1.5% lactose and 0.025% glucose. The tissue morphology of the lines induced on lactose was different from the ones induced on sucrose. […] In order to further increase the proliferation rate, 0.5% sucrose was added to the TX 1.5% lactose-containing medium in place of 0.025% glucose. This medium provided a reasonable bulk-up rate, and growth of embryos was more synchronized than in the 1% sucrose medium.

In data set [3] the test system is Douglas fir embryogenic tissue, cell line DF-2. In words: Effects of carbohydrates on liquid maintenance of Douglas fir embryogenic tissue. In kind it is cell-based, Pseudotsuga menziesii (Douglas fir). Conditions: 3 weeks suspension maintenance/bulking-up, 0.5% galactose, 1% lactose, 0.5% mannitol. How it is done: The culture medium for Douglas fir was TX medium (see Table A) with the following additives: glutamine 100 mg., Casein hydrolysate 100 mg., and pH 5.8. The following compounds were added into the basal medium for Douglas fir somatic embryo development at different stages: • 1) Induction medium: 18 μM 2,4-D and 9 μM BA, phytagel 0.28%, sucrose 1% • 2) Solid maintenance medium: 9 μM 2,4-D and 4.5 μM BA, phytagel 0.28%, sucrose 1%. • 3) Liquid maintenance and bulking-up medium: 9 μM 2,4-D and 4.5 μM BA, different carbon sources for experiments. • 4) Liquid pre-treatment medium: 20 (first week) or 30 μM ABA (second week), 10% PEG4000 (first week) or PEG1500 (second week), different carbon sources as described in examples below. • 5) Solid maturation media: TX (Table A) plus 0.02% NH4NO3 • Medium I. 40 μM ABA, 10% PEG 1500, maltose 2.5%, phytagel 0.6% • Medium II. 60 μM ABA, 10% PEG1500, maltose 2.5% and sucrose 1%, phytagel 0.8% • Medium III. 70 μM ABA, 6% PEG1500, sucrose 6%, phytagel 1%.
Embryogenic tissue was induced from immature zygotic embryos. The cones and seeds were surface-sterilised as described for pines, and embryos were dissected out from megagametophytes. The embryos, with the attachment of suspensors to their megagametophytes, were placed on the surface of induction medium. The culture was kept in darkness at 23° C. Embryogenic tissue was sub-cultured once every two weeks onto solid maintenance medium.
Embryogenic tissue of Douglas fir was collected from solid maintenance culture and one gram of tissue was transferred into a 200 ml flask containing 50 ml TX (see Table A) liquid maintenance medium. The liquid maintenance medium was supplied with different sugars (Table 8).
The tissue was drained, weighed and sub-cultured once per week. During a culture period of three weeks, the highest tissue growth was found in the culture with glucose as the major carbon source. The media containing sucrose, maltose and galactose also supported a fast tissue growth. With these latter sugars, tissue increased to 68 to 100 fold in three weeks. Tissue grew little in the media containing lactose or mannitol. […] Similar results were obtained within two cell lines, DF-7A and DF-2.

Data set [4] relates to Suspension cultures of loblolly lines LP1, LP2, LP3, LP4 and LP5. In words: Effect of carbon source on liquid maintenance: growth rate and yield of somatic embryos. Format: cell-based, Pinus taeda (loblolly pine). Conditions: 1% sucrose. The method, then:
Suspension cultures of loblolly lines LP1, LP2, LP3, LP4 and LP5 were started with 2 g of tissue introduced to 50 ml of TX liquid medium containing different sugars—1% sucrose, 1.5% maltose, or 1.5% lactose. These cultures were maintained in the same liquid media for 2 weeks by weekly transfers to fresh maintenance medium containing the above sugars. Then, 2 g of tissue produced in each maintenance medium was transferred to prematuration media I, containing the same carbon source as the maintenance media. After one week, 1.5 g of tissue from each prematuration medium I was transferred to prematuration media II containing the same sugars. After the 4 week period in liquid media, early stage somatic embryos were collected and plated on ½ LV maturation medium containing 120 μM ABA and 6.0% sucrose and 1% Phytagel. Eight to ten weeks later, mature somatic embryos were counted and treatments were evaluated based on the number of somatic embryos per gram fresh weight (SE/g FW). Table 2 summarises the tissue yield at the end of the 4-week period and the number of mature somatic embryos produced for each line.

Data set [5] relates to Loblolly pine megagametophytes containing immature zygotic embryos. Description: Effect of carbon source on induction of loblolly pine. In kind it is cell-based, Pinus taeda (loblolly pine). How it is done:
Female gametophytes containing the immature zygotic embryos were used as explants. The cones were surface sterilized in 10% bleach solution for 15 min. They were rinsed 3 times with sterile water, air dried and stored in polyethylene bags at 4° C. until used. Seeds were sterilized in 3% hydrogen peroxide containing 0.1% Tween 20 and rinsed in sterile deionized water. Megagametophytes containing the immature embryos were plated on TX medium (Table A) supplemented with 2.2 mg/l 2,4-D, 1 mg/l BA and 0.3% Phytagel and containing either 1% sucrose, or 1.5% lactose and 0.025% glucose.
Cultures were maintained on the two media by subculturing the embryogenic tissue every 10 to 14 days to fresh media. All cultures were incubated at 23° C. in the dark.

Data set [6] has as its system Douglas fir embryogenic tissue. Description: Medium osmolarity before and after one-week tissue inoculation. In kind it is cell-based, Pseudotsuga menziesii (Douglas fir). Conditions: medium with 0.5% galactose, 1% lactose, 0.5% mannitol or 0.5% glucose. The source says:
More change of medium osmolarity occurred during week 2 than week 1. The medium osmolarity changed little when lactose or mannitol was used in the media.

In data set [7] the test system is loblolly pine lines LP2, LP3 and LP4. In words: Effect of lactose during the prematuration steps. Conditions: 1% sucrose maintenance. Format: cell-based, Pinus taeda (loblolly pine). How it is done:
Prematuration for loblolly pine may be performed in two steps: • 1. Prematuration I requires reduction of hormones either by reducing the auxin and cytokinin concentrations to optimally about 1/20 of the concentration of proliferation step, or by adding charcoal at about 0.01 to 1%, or a combination of both. • 2. Prematuration II follows prematuration I and requires an addition of ABA at concentrations of about 5 to 120 μM, preferably 90 μM and no auxin and cytokinins.
In order to further understand the effect of lactose on somatic embryo development, liquid maintenance cultures were started in TX medium containing 1% sucrose as in Example 3. Three lines were used in this experiment, LP2, LP3 and LP4. After the proliferation step, 2 g of the tissue was transferred for one week to prematuration medium I containing different concentrations of lactose—1.5%, 3% and 6%. After that, 1.5 g of tissue produced in the lactose-containing media was further cultured for a week in prematuration medium II containing the same amount of lactose. 3.

Setting [8] is: then 1.5% lactose in prematuration I and II.
[9] abbreviates: then 3% lactose in prematuration I and II.
The mark [10] stands for this setting: then 6% lactose in prematuration I and II.

Structures are written as SMILES.

On to `OC[C@H]1O[C@@H](O[C@H]2[C@H](O)[C@@H](O)C(O)O[C@@H]2CO)[C@H](O)[C@@H](O)[C@H]1O` (stereo partly drawn) [Lactose], for which the embryos produced entry in data set [1] (line LP1, as stated in the text) was “over 1000 embryos”. Also, the “# SE/g FW” value in data set [1] (line LP1) was 1060 ± 17 SE/g FW; in data set [1] (line LP3), 110 ± 7 SE/g FW. The “Amount of tissue at the end of the preculture II stage” value in data set [1] (line LP1) turned out to be 28.9; in data set [1] (line LP3), 8.78. For the same compound, the tissue morphology entry in data set [2] is “more early-stage immature embryos and a limited amount of suspensor type of surrounding tissue”. In addition, the “Tissue growth (fold, mean ± SD)” value in data set [3] (additional glucose 0%, 0.5% glucose, 1% sucrose, 1% maltose) is 1.40 ± 0.14 fold; in data set [3] (additional glucose 0.025%), 2.75 ± 0.24 fold. Also, the “# SE/g FW ± sd” value in data set [4] (1.5% maltose or 1.5% lactose for 4 weeks in liquid, then 8-10 weeks on 1/2 LV maturation medium) is listed as 393 ± 10 SE/g FW. The “Average amount of tissue produced after 4 weeks in liquid (FW g)” value in data set [4] (1.5% maltose or 1.5% lactose in maintenance and prematuration I and II, started with 2 g) turned out to be 18.63 g. Besides, the “Induction success, lactose medium compared with sucrose medium” value in data set [5] is “greater than three times higher”. Besides, the “Osmolarity before inoculation (mmol/kg, mean ± SD)” value in data set [6] stood at 93.33 ± 0.58 mmol/kg. The “Mean # SE/g FW ± sd” value in data set [7] (setting [8]) turned out to be 106 ± 9 SE/g FW; in data set [7] (setting [9]), 209 ± 7 SE/g FW; in data set [7] (setting [10]), 169 ± 10 SE/g FW. For the same compound, the “Mean grams FW at the end of prematuration stage” value in data set [7] (setting [8]) was determined as 121.90 g; in data set [7] (setting [9]), 216.47 g; in data set [7] (setting [10]), 149.13 g.
